Results as given in patent US20220133711A1, “CAMPTOTHECIN DERIVATIVES” (priority 2019, published 2022).
Like-named read-outs stand apart in the source and are kept apart here.

Columns and labels:
Assay type in all cases: cell-based
[1] = test system: HSC-2; test: In vitro cytotoxicity assay (WST-8 cell viability, 5 days); conditions: Homo sapiens
Procedure: (§1) Cytotoxic potencies were assessed in flat-bottomed 96 well plates (Costar) using a water-soluble tetrazonium salt (WST-8) based cell viability assay (Dojindo, Molecular Technologies, Inc.) as previously described (Kovtun Y V, et al. Antibody-maytansinoid conjugates designed to bypass multidrug resistance. Cancer Res 2010; 70(6):2528-37). Briefly, human tumor cells (1,000-5,000 cells/well, depending on the cell line), in the appropriate culture medium were incubated, with conjugates in the presence or absence of an excess of the corresponding unconjugated antibodies, or with the metabolites for 5 days, at 37° C., 6% CO2. Cell viability was determined from background-corrected WST-8 absorbance.

[2] = test system: Namalwa; test: as above; conditions: Homo sapiens, read-out: In vitro cytotoxicity (IC50) Namalwa
Procedure: as §1

[3] = test system: MDA-MB-468; test: as above; conditions: Homo sapiens, MDA-MB-468, read-out: In vitro cytotoxicity (IC50) MDA-MB-468
Procedure: as §1

[4] = test system: N-Luc (Namalwa cells stably transfected with the Luciferase gene); test: as above; conditions: Homo sapiens
Procedure: as §1

[5] = test system: SUDHL-1; test: as above; conditions: Homo sapiens, SU-DHL-1, read-out: In vitro cytotoxicity (IC50) SUDHL-1
Procedure: as §1

[6] = test system: KB; test: cells; conditions: Homo sapiens, read-out: In vitro cytotoxicity (IC50) KB
Procedure: as §1

[7] = HSC-2, read-out: In vitro cytotoxicity (IC50) HSC-2, non-conjugated compounds, Table 7A
[8] = HSC-2, read-out: In vitro cytotoxicity (IC50) HSC-2
[9] = read-out: In vitro cytotoxicity (IC50) N-Luc, non-conjugated compounds, Table 7A
[10] = read-out: In vitro cytotoxicity (IC50) N-Luc, non-conjugated compounds, Table 7B
[11] = HSC-2, read-out: In vitro cytotoxicity (IC50) HSC-2, non-conjugated compounds, Table 7B

CC[C@@]1(O)C(=O)OCc2c1cc1n(c2=O)Cc2c-1nc1cc(F)c(C)cc1c2CCl [Compound 4a]
IC50 [1, 7]: 4 nM
IC50 [2]: 3 nM

CC[C@@]1(O)C(=O)OCc2c1cc1n(c2=O)Cc2c-1nc1cc(F)c(SC)cc1c2CCl [Compound 4b]
IC50 [1, 7]: 3 nM
IC50 [2]: 1 nM

CC[C@@]1(O)C(=O)OCc2c1cc1n(c2=O)Cc2c-1nc1cc(F)c(C)cc1c2CNC(=O)CO [Compound 7a]
IC50 [1, 8]: 2 nM
IC50 [1, 7]: 4 nM
IC50 [3]: 3 nM
IC50 [4, 9]: 1 nM
IC50 [4, 10]: 0.9 nM
IC50 [2]: 0.9 nM
IC50 [5]: 0.5 nM

CC[C@@]1(O)C(=O)OCc2c1cc1n(c2=O)Cc2c-1nc1cc(F)c(SC)cc1c2CNC(=O)CO [Compound 7b]
IC50 [1, 7]: 7 nM
IC50 [4, 9]: 2 nM

CC[C@@]1(O)C(=O)OCc2c1cc1n(c2=O)Cc2c-1nc1cc(F)c(C)cc1c2CN(Cc1ccccc1)C(=O)CO [Compound 7c]
IC50 [1, 7]: 1 nM
IC50 [3]: 1 nM
IC50 [4, 9]: 0.7 nM
IC50 [5]: 0.2 nM

CC[C@@]1(O)C(=O)OCc2c1cc1n(c2=O)Cc2c-1nc1cc(F)c(C)cc1c2CCCCO [Compound 8a]
IC50 [1, 7]: 0.6 nM
IC50 [1, 11]: 0.5 nM
IC50 [3]: 2 nM
IC50 [4, 9]: 0.9 nM
IC50 [4, 10]: 0.2 nM
IC50 [2]: 0.2 nM
IC50 [6]: 0.6 nM

CC[C@@]1(O)C(=O)OCc2c1cc1n(c2=O)Cc2c-1nc1cc(F)c(C)cc1c2CSCCO [Compound 8c]
IC50 [1, 8]: 0.4 nM
IC50 [4, 10]: 0.2 nM

CC[C@@]1(O)C(=O)OCc2c1cc1n(c2=O)Cc2c-1nc1cc(F)c(C)cc1c2CSCCSC [Compound 8p]
IC50 [1, 11]: 0.6 nM
IC50 [4, 10]: 0.2 nM

CC[C@@]1(O)C(=O)OCc2c1cc1n(c2=O)Cc2c-1nc1cc(F)c(C)cc1c2CCCCSC [Compound 33a]
IC50 [1, 7]: 2 nM
IC50 [2]: 0.7 nM

CC[C@@]1(O)C(=O)OCc2c1cc1n(c2=O)Cc2c-1nc1cc(F)c(C)cc1c2C[S+]([O-])CCO (some centres unmarked) [Compound 34a]
IC50 [1, 7]: 9 nM
IC50 [3]: 7 nM
IC50 [6]: 7 nM

CC[C@@]1(O)C(=O)OCc2c1cc1n(c2=O)Cc2c-1nc1cc(F)c(C)cc1c2CS(=O)(=O)CCO [Compound 34b]
IC50 [1, 7]: 3 nM
IC50 [3]: 3 nM
IC50 [6]: 2 nM

CC[C@@]1(O)C(=O)OCc2c1cc1n(c2=O)Cc2c-1nc1cc(F)c(C)cc1c2CNC(=O)CCCCCSC [Compound 35a]
IC50 [1, 7]: 7 nM
IC50 [5]: 0.6 nM
